# “And” between values parts separate entries of the source, which are not always exact repeats. Equal values may be shown once. “Also recorded” adds a separate entry of the source.
# Assays:
# [1] = cited from earlier work
# Bacillus subtilis = details: as low as; cited from earlier work
# [2] = oral, rats; cited from earlier work
# Bacillus subtilis W23 = experiment: inhibition of growth of Bacillus subtilis W23 in growth medium; type: cell-based
# Experimental: (§1) The hydroxybenzindazole (compound 2) delayed (inhibited) the initiation of growth of selected unrelated bacteria when incorporated in the growth medium. The inhibition was dependent on the concentration of the test compound and the nature of the organism. […] Pseudomonas fluorescens NND was not sensitive to the hydroxybenzindazole in the concentrations tested.
# The influence of cell mass on the antimicrobial potential of the hydroxybenzindazole was determined using B. subtilis W23. […] Thus, a critical number of molecules must react with the cell to produce inhibition. Experiments were conducted to determine if Mg^+^+, which is an important component of cell membranes, affected the inhibition. Cells of B. subtilis W23 were exposed to 10^-^3 M MgCl2 simultaneously with the test compound or for as long as 15 minutes prior to addition of the hydroxybenzindazole.
# cells [3] = experiment: uptake or incorporation of L-serine-3-14C or uracil-2-14C; type: cell-based; details: 60 μg/ml
# Text: (§2) Thus the compound can be used to destroy undesirable cells without damaging normal cells.
# Escherichia coli B = experiment: inhibition of initiation of growth of Escherichia coli B; type: cell-based; details: E. coli B
# Text: as §1
# B. subtilis W23 = experiment: antimicrobial activity in combination with selected antibiotics; type: cell-based
# Experimental: Several antibiotics act at the cell surface. The antimicrobial activity of the hydroxybenzindazole in combination with selected antibiotics was measured.
# Both Polymyxin (Pfizer, Inc.) and Circulin (Upjohn Co.) are surface active compounds thought to cause disorganization of the cell membrane leading to a loss of intracellular components. The enhanced antimicrobial activity observed with the combination of hydroxybenzindazole and antibiotics denotes a more pronounced distortion in the cell surface. Thus, much lower concentrations of the compounds can be used in medicinal applications providing an opportunity for toxic compounds to have greater medicinal applicability and use.
# Failure of the mixture of hydroxybenzindazole and chloramphenicol to show an enhanced inhibition of growth could be correlated with the internal site of action of chloramphenicol, which is blockage of the binding of the 30s and 50s ribosomal subunits.
# rat testis tubules [4] = experiment: lysine-U-14C incorporation into protein by rat testis tubules in vitro; type: cell-based
# Experimental: (§3) For these investigations the compounds were diluted in a minimal amount of ethanol and further diluted in saline (0.85%) so that the final concentration was 1 mg/ml. The compounds were placed in solution and gassed under N2 and stored at 5° C until used 2 days later for the in vitro incubation studies. Details of the in vitro incubation procedures may be found in Endocrinology 89:791-800 (1971).
# The effects of the compounds on the incorporation of lysine -U-^14 C into trichloroacetic (TCA) precipitable protein of rat testes was investigated by incubating about 200 mg of teased testis tubules from mature rats in a 25 ml Erlenmeyer flask containing 3 ml of Krebs Ringer bicarbonate buffer (pH 7.4), L-lysine-U-^14 C (0.5 μCi; 0.1mM), glucose (10 mM) and 0.25 ml of the azasteroid to be tested. The flasks were incubated for 1 hour at 33° C under 95% O2 : 5% CO2 and the TCA precipitable protein was isolated and an aliquot used to measure radioactivity.
# CPM = counts per minute. All compounds were tested in a concentration of […]
# P. fluorescens NND = experiment: lysis of cells of P. fluorescens NND; type: cell-based, Pseudomonas fluorescens NND
# Experimental: The increased lytic rate was not observed when the benzindazole was added after the cells had reached the maximum stationary phase (10 hours); thus, the compounds must be present during active growth for the cells to show the lytic response. […] This is extremely important in controlling or destroying growth of undesirable cells since if the cells rupture they cannot possibly grow and divide at any future time.
# cells [5] = experiment: binding or adsorption to the cell; details: incubated with 20 μg
# Text: as §2
# [6] = effects on testis function: body, testis and seminal vesicle weight; type: in vivo, mice (ICR-Swiss adult male); details: average; 0.2 mg per day s.c., 10 days
# Experimental: The compounds as shown in Table 7 were dissolved in a minimal amount of ethanol and diluted in sesame oil (1 mg/ml). After dilution, samples were stored at 5° C in the dark and flushed with N2 every 24 hours. The compounds were injected subcutaneously into adult male mice for a period of 10 days. Each mouse injected received a total dose of 2 mg over the 10 day period or 0.2 mg per day. The mice were random bred males of the ICR-Swiss strain and were used in the study when they reached 75±2 days of age. Mice were maintained in air-conditioned and light-controlled (14 hour light/24 hour) animal quarters and provided with lab food and water ad libitum. Animals were necropsied 24 hours after the last injection. Testes and seminal vesicles were excised, trimmed of adhering tissue and weighed fresh at the nearest one-tenth milligram.
# [7] = system: Pseudomonas fluorescens NND; experiment: inhibition of growth of Pseudomonas fluorescens NND; type: cell-based; details: concentrations tested; P. fluorescens NND; listed as hydroxybenzindazole
# Text: as §1
# rat testis tubules [8] = experiment: glucose oxidation (glucose-U-14C) by rat testis tubules in vitro; type: cell-based
# Experimental: as §3
# The effects of these compounds on glucose oxidation by testis tubules was examined by incubating about 200 mg of teased testis tubules from mature rats in a 25 ml Erlenmeyer flask containing 3 ml of Krebs Ringer bicarbonate buffer (pH 7.4), D-glucose-U-^14 C (0.5 μCi; 10mM) and 0.25 ml of the azasteroid (1 mg/ml) to be tested. The flasks were incubated for 2 hours at 33° C under 95% O2 :5% CO2. The reaction was terminated by adding 0.25 ml of 5 N H2 SO4. Carbon dioxide was trapped in 0.25 ml of hydroxide of Hyamine. The radioactivity present in the Hyamine was determined by liquid scintillation spectrometry. This table includes a detailed summary of the results obtained and an average for each compound. […] Thus, the compounds have potential for antifertility activity in the control of wild rodent populations and possibly stray animals such as dogs and cats.
# CPM = counts per minute. Glucose-U-^14 C activity was 0.5 millicurie.
# All compounds were tested in a concentration of 250 mg per flask.
# [9] = system: osmoplasts (osmotically sensitive cells) of B. subtilis W23; experiment: lysis of osmoplasts of B. subtilis W23; type: cell-based; details: stabilized in 0.35 M sucrose
# Text: as §2
# [10] = cited from earlier work; remark: listed apart in the source
# [11] = individual flask, 250 mg per flask (so in the source), 1 hour, 33° C
# [12] = individual flask, 250 mg per flask (so in the source), 2 hours, 33° C
compound,measurement,setting,value
COc1ccc2c(c1)CC[C@@H]1[C@@H]2CC[C@]2(C)C(=O)NC[C@@H]12 [0-methyl ether of 16-azaestrone],estrogenic activity relative to parent estrone,[1],less than 1.01%
CC(C)CCC[C@@H](C)[C@H]1CC[C@H]2[C@@H]3CC=C4N(CC[N+](C)(C)C)C(=O)CC[C@]4(C)[C@H]3CC[C@]12C [4-Dimethylaminoethyl-4-aza-5-cholesten-3-one methiodide],concentration that irreversibly inhibits growth of Bacillus subtilis cultures,Bacillus subtilis,1 µg/mL
"C[C@]12Cc3cn[nH]c3C[C@@H]1CC[C@@H]1[C@@H]2CC[C@@]2(C)[C@H]1CC[C@]2(C)O [17-Hydroxy-17 α-methylandrostano[3,2]-μ pyrazole]",antiovulatory activity relative to norethisterone,[2],one-fifth of that observed for norethisterone
"Oc1ccc2c(c1)CCc1cn[nH]c1-2 [Compound 2, 4,5-Dihydro-1H-benz[g]indazol-7-ol]",growth inhibition at lower concentration,"Bacillus subtilis W23; 46 μg/ml, B. subtilis W23",only slight inhibition
same,increased lag in the initiation of growth,"Bacillus subtilis W23; 86 μg/ml, B. subtilis W23",approximately 3 hours
same,influence of Mg++ on the inhibition,"Bacillus subtilis W23; 10^-3 M MgCl2, simultaneously or up to 15 minutes prior",did not influence the inhibition
same,influence of cell mass on extent of inhibition,"Bacillus subtilis W23; B. subtilis W23, increasing inoculum cell mass",the extent of inhibition was diminished as the cell mass of the inoculum was increased
same,inhibition of uptake or incorporation of L-serine-3-14C or uracil-2-14C,cells [3],did not inhibit uptake or incorporation
same,growth inhibition at lower concentration,Escherichia coli B; 46 μg/ml,only slight inhibition
same,increased lag in the initiation of growth,Escherichia coli B; 86 μg/ml,approximately 3 hours
same,"inhibition of growth, tested separately","B. subtilis W23; alone, B. subtilis W23",very slight inhibition of growth
same,enhanced inhibition in combination with chloramphenicol,B. subtilis W23; with chloramphenicol,enhanced inhibition was not observed
same,inhibition of growth in combination with penicillin,"B. subtilis W23; with penicillin, B. subtilis W23",pronounced inhibition
same,AVERAGE OF TWO FLASK lysine incorporation,rat testis tubules [4]; average of two flasks,814 CPM/100 mg tissue
same,protein synthesis by teased testis tubules,rat testis tubules [4]; in words,depress protein synthesis
same,lysine incorporation into protein per 100 mg,rat testis tubules [4]; [11],"1,000 CPM/100 mg and 629 CPM/100 mg"
same,lysine incorporation into protein per flask,rat testis tubules [4]; [11],"2,000 CPM/FLASK and 1,200 CPM/FLASK"
same,dependence of extent of lysis on concentration,P. fluorescens NND; P. fluorescens NND,proportional to the benzindazole concentration
same,increased lytic rate when added after maximum stationary phase,P. fluorescens NND; added after 10 hours,not observed
same,cell population lysed,P. fluorescens NND; cells grown in presence of compound,approximately 95%
same,amount bound or adsorbed to the cell,cells [5],approximately 1 μg
same,Body Weight,[6],35.7 g
same,Mg Testes Per g Body Wt.,[6],6.73 Mg per g
same,Seminal Vesicle weight,[6],87.3 mg
same,Testes Paired weight,[6],242.0 mg
same,sensitivity / influence on growth,[7],not sensitive; also recorded: did not influence the growth
same,AVERAGE glucose oxidation,rat testis tubules [8]; average of flasks,"3,756 CPM/100 mg TISSUE"
same,depression of glucose oxidation in vitro,rat testis tubules [8]; in words,depressed glucose oxidation in vitro more than compounds 4 c and 11b
same,GLUCOSE OXIDATION per 100 mg,rat testis tubules [8]; [12],"3,354 CPM/100 mg and 4,159 CPM/100 mg"
same,GLUCOSE OXIDATION per flask,rat testis tubules [8]; [12],"6,876 CPM/FLASK and 8,557 CPM/FLASK"
same,"% DEVIATION FROM CONTROL, glucose oxidation","rat testis tubules [8]; versus saline, 120 min",-63.6%
same,lysis of osmoplasts,[9],did not produce lysis
"(3,2-c)-2'-phenylpyrazole of 9α-fluoro-6,16α-dimethyl-Δ^6 -hydrocortisone",anti-inflammatory potency relative to hydrocortisone,[10],over 2000 times

# From patent publication US3987055A, “Azasteroids compounds and derivatives” (The Board of Regents for the Oklahoma Agricultural & …, priority 1974, dated 1976)
